From ChEMBL document CHEMBL1770110, “Pyrimido[4,5-d]azepines as potent and selective 5-HT2C receptor agonists: design, synthesis, and evaluation of PF-3246799 as a treatment for urinary incontinence” (Bioorg Med Chem Lett, 2011)
Values belong to the molecule of their own block, whether it stands above or below them. The source made the active and inactive calls. No cut-off for these calls is given here.

What was measured:
[1] = Chemical stability of compound at pH 1 to 12; format: physicochemical; details: buffer
[2] = Aqueous solubility of the compound at pH 1.5 to 11.7; format: physicochemical; details: buffer
[3] = molecular target: T1, 5-hydroxytryptamine receptor 2C (Homo sapiens) (UniProt P28335); assay: Agonist activity at human 5HT2C receptor expressed in CHO-K1 cells assessed as increase of fluorescence based calcium mobilization by FLIPR assay relative to control; format: functional, cell-based
T1 sequence (whole entry): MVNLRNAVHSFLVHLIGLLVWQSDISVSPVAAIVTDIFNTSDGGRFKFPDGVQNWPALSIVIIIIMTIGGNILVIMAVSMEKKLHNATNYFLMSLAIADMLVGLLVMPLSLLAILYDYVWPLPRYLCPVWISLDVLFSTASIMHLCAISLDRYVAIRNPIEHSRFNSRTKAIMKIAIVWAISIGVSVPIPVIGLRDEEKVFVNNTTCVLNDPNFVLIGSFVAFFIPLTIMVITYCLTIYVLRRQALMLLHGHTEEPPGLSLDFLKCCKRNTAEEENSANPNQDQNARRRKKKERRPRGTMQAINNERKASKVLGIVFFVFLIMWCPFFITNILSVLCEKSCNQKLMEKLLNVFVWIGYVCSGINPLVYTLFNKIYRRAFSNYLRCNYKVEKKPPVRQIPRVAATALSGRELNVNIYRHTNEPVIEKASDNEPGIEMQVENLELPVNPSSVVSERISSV

[4] = Intrinsic clearance in human hepatocytes assessed per 10^6 cells; format: ADME, cell-based, Liver, Hepatocyte
[5] = Plasma clearance in CD rat at 1 mg/kg, iv administered as single bolus dose; format: ADME, organism-based; set-up: dose 1 mg/kg, route intravenous
[6] = Cmax in CD rat at 2 mg/kg, po administered as single dose; format: ADME, organism-based; set-up: dose 2 mg/kg, route oral; details: in vivo
[7] = Drug excretion in CD rat urine at 1 mg/kg, iv administered as single bolus dose; format: ADME, organism-based; set-up: dose 1 mg/kg, route intravenous
[8] = Intrinsic clearance in rat liver microsomes; format: ADME, Microsome
[9] = Plasma clearance in Beagle dog at 0.030 mg/kg, iv administered as infusion over 1 hr; format: ADME, organism-based, Canis lupus familiaris; set-up: dose 0.03 mg/kg, route intravenous; details: 0.03 mg/kg
[10] = tested on: Canis familiaris; assay: Increase of peak urethral pressure in iv dosed anesthetized dog stress urinary incontinence model at 20 to 45 nM of free plasma concentration relative to control; format: functional, Canis lupus familiaris, Urethra
[11] = Oral bioavailability in CD rat at 2 mg/kg administered as single dose; format: ADME, organism-based; details: in vivo
[12] = Intrinsic clearance in dog hepatocytes assessed per 10^6 cells; format: ADME, cell-based, Canis lupus familiaris, Liver, Hepatocyte
[13] = Volume of distribution in CD rat at 1 mg/kg, iv administered as single bolus dose; format: ADME, organism-based; set-up: dose 1 mg/kg, route intravenous; details: in vivo
[14] = Intrinsic clearance in rat hepatocytes assessed per 10^6 cells; format: ADME, cell-based, Liver, Hepatocyte
[15] = Tmax in CD rat at 2 mg/kg, po administered as single dose; format: ADME, organism-based; set-up: dose 2 mg/kg, route oral; details: in vivo
[16] = Intrinsic clearance in dog liver microsomes; format: ADME, Canis lupus familiaris, Microsome
[17] = Elimination half life in Beagle dog at 0.030 mg/kg, iv administered as single infusion over 1 hr; format: ADME, organism-based, Canis lupus familiaris; set-up: dose 0.03 mg/kg, route intravenous; details: in vivo, 0.03 mg/kg, read-out: beta t1/2 (converted)
[18] = tested on: Rattus norvegicus; assay: AUC (0 to infinity) in CD rat at 2 mg/kg, po administered as single dose; format: ADME, organism-based, Plasma; set-up: time infinity, dose 2 mg/kg, route oral; details: in vivo
[19] = Elimination half life in CD rat at 1 mg/kg, iv administered as single bolus dose; format: ADME, organism-based; set-up: dose 1 mg/kg, route intravenous; details: in vivo, read-out: beta t1/2 (converted)
[20] = Volume of distribution in Beagle dog at 0.030 mg/kg, iv administered as infusion over 1 hr; format: ADME, organism-based, Canis lupus familiaris; set-up: dose 0.03 mg/kg, route intravenous; details: in vivo, 0.03 mg/kg
[21] = Intrinsic clearance in human liver microsomes; format: ADME, Microsome
[22] = Dissociation constant, pKa of the compound; format: physicochemical
[23] = molecular target: T2, 5-hydroxytryptamine receptor 2B (Homo sapiens, UniProt P41595); assay: Agonist activity at human 5HT2B receptor expressed in CHO-K1 cells assessed as increase of fluorescence based calcium mobilization by FLIPR assay relative to control; format: functional, cell-based
T2 sequence (P41595 whole entry): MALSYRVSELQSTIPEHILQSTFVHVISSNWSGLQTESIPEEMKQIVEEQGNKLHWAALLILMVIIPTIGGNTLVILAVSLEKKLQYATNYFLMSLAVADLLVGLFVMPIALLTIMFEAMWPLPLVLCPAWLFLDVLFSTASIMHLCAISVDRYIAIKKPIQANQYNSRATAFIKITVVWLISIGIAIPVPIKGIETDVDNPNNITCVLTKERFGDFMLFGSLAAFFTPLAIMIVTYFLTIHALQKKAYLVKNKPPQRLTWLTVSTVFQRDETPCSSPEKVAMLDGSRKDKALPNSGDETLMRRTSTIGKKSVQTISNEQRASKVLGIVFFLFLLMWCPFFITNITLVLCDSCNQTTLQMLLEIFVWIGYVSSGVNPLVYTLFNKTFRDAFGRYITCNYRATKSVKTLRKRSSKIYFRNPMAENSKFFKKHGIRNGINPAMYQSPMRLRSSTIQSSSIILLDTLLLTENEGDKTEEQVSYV

[24] = molecular target: T2, 5-hydroxytryptamine receptor 2B; assay: Agonist activity at human 5HT2B receptor expressed in CHO-K1 cells assessed as increase of fluorescence based calcium mobilization by FLIPR assay; format: functional, cell-based
[25] = molecular target: T1, 5-hydroxytryptamine receptor 2C (Homo sapiens); assay: Agonist activity at human 5HT2C receptor expressed in CHO-K1 cells assessed as increase of fluorescence based calcium mobilization at 10 uM by FLIPR assay relative to control; format: functional, cell-based
[26] = molecular target: T3, 5-hydroxytryptamine receptor 2C (Homo sapiens, UniProt P28335); assay: Displacement of [3H][…] from human 5HT2C receptor expressed in Swiss mouse 3T3 cells by scintillation proximity assay; format: cell-based, NIH3T3
T3 sequence (P28335 whole entry): T1 sequence (whole entry)

[27] = tested on: Rattus norvegicus; assay: Inhibition of 5HT2A receptor-mediated head twitches in rat at 10 mg/kg, po; format: functional, organism-based; set-up: dose 10 mg/kg
[28] = tested on: Canis familiaris; assay: Increase of peak urethral pressure in iv dosed anesthetized dog stress urinary incontinence model; format: functional, organism-based; details: Canis lupus familiaris; Urethra
[29] = molecular target: Voltage-gated sodium channel type V alpha polypeptide (Oryctolagus cuniculus) (UniProt Q2MZF0); assay: Inhibition of Nav1.5 in rabbit cardiac myocytes up to 100 uM; format: cell-based
[30] = Binding affinity to L-type calcium channel verapamil binding site at 10000 nM
[31] = molecular target: T4, Muscarinic acetylcholine receptor M5 (Homo sapiens) (UniProt P08912); assay: Agonist activity at human muscarinic M5 receptor up to 10 uM; format: functional
T4 sequence (whole entry): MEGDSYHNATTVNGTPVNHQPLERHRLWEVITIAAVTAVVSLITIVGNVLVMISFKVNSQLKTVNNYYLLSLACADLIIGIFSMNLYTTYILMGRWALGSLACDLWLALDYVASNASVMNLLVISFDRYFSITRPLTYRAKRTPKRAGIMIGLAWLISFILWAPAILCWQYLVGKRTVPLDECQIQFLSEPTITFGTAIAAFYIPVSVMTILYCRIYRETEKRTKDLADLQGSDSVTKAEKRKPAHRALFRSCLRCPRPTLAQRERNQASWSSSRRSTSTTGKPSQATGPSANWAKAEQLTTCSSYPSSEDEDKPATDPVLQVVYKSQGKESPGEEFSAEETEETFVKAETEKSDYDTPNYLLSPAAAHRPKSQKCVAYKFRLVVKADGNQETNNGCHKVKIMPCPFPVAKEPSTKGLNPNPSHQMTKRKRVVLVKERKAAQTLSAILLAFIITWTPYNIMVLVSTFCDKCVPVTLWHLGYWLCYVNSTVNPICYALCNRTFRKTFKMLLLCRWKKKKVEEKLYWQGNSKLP

[32] = molecular target: T2, 5-hydroxytryptamine receptor 2B; assay: Agonist activity at human recombinant 5HT2B receptor expressed in Swiss mouse 3T3 cells assessed as increase of fluorescence based calcium mobilization at 10 uM by FLIPR assay; format: functional, cell-based; details: NIH3T3
[33] = Binding affinity to L-type Ca2+ channel dihydropyridine binding site at 10000 nM
[34] = molecular target: T5, Muscarinic acetylcholine receptor M1 (Homo sapiens) (UniProt P11229); assay: Agonist activity at human muscarinic M1 receptor up to 10 uM; format: functional
T5 sequence (whole entry): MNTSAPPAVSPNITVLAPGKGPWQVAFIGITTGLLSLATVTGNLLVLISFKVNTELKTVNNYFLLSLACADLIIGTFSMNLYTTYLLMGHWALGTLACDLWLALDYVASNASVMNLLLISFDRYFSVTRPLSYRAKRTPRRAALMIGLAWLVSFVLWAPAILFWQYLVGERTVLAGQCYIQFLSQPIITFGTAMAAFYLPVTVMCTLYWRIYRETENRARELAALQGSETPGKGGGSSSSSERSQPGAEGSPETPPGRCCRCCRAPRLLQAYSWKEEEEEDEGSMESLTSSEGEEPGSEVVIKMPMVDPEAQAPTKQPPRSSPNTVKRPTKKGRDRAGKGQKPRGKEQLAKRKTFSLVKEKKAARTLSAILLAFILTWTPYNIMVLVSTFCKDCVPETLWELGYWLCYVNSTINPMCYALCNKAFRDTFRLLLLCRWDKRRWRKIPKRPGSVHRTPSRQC

[35] = Binding affinity to L-type calcium channel diltiazem binding site at 10000 nM
[36] = molecular target: 5-hydroxytryptamine receptor 2A (Homo sapiens) (UniProt P28223); assay: Agonist activity at human recombinant 5HT2A receptor expressed in Swiss mouse 3T3 cells increase of fluorescence based calcium mobilization by FLIPR assay relative to control; format: functional, cell-based; details: NIH3T3
Chain of 5-hydroxytryptamine receptor 2A (Homo sapiens) (P28223 whole entry): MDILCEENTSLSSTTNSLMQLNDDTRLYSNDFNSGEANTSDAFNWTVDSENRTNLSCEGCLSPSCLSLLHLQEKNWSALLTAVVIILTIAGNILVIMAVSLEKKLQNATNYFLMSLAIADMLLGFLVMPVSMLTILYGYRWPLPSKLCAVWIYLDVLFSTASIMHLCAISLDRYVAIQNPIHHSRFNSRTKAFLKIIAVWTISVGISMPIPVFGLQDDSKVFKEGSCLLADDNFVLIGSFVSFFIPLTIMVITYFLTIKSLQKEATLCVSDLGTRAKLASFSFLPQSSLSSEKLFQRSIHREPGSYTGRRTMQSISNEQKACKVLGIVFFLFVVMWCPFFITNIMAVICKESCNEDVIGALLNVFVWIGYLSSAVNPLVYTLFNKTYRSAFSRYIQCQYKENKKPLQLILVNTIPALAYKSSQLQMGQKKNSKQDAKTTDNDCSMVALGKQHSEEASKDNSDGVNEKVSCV

[37] = Binding affinity to sodium channel site 2 at 10000 nM
[38] = molecular target: 5-hydroxytryptamine receptor 2A (Canis lupus familiaris) (UniProt O46635); assay: Agonist activity at 5HT2A receptor in dog femoral artery relative to control; format: functional, tissue-based
Chain of 5-hydroxytryptamine receptor 2A (Canis lupus familiaris) (O46635 whole entry): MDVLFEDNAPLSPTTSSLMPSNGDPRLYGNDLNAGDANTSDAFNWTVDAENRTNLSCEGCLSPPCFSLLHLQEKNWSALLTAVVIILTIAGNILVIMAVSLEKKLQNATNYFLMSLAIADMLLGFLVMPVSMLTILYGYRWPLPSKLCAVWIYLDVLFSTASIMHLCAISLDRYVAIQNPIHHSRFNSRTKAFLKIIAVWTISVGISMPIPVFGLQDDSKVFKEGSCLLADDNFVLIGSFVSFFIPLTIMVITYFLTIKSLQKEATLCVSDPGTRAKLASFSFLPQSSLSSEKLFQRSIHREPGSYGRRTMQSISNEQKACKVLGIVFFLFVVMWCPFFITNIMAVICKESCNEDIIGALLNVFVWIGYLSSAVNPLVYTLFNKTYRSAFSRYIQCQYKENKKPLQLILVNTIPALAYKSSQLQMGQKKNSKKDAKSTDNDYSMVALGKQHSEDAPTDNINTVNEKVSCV

[39] = molecular target: T2, 5-hydroxytryptamine receptor 2B; assay: Agonist activity at human 5HT2B receptor expressed in CHO-K1 cells assessed as increase of fluorescence based calcium mobilization at 10 uM by FLIPR assay relative to control; format: functional, cell-based
[40] = molecular target: T6, 5-hydroxytryptamine receptor 2C (Canis lupus familiaris) (UniProt Q60F97); assay: Agonist activity at dog 5HT2C receptor ralative to control; format: functional
T6 sequence (whole entry): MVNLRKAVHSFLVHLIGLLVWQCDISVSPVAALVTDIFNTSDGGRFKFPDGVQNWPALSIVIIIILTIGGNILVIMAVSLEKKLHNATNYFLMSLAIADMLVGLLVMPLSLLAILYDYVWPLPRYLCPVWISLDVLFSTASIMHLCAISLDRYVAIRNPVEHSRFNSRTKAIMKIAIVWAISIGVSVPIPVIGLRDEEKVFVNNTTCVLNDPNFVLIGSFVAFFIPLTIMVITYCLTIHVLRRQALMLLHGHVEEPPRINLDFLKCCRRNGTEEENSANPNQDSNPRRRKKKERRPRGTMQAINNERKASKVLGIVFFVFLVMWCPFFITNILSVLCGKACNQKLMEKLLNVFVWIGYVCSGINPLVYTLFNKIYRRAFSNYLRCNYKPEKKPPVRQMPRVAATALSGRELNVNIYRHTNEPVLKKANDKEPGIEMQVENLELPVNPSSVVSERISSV

[41] = molecular target: T3, 5-hydroxytryptamine receptor 2C; assay: Agonist activity at human 5HT2C receptor expressed in CHO-K1 cells assessed as increase of fluorescence based calcium mobilization by FLIPR assay; format: functional, cell-based

Stability [1]: Stable
solubility [2]: > 10000 µg/mL
Structure (SMILES): O=C(O)/C=C/C(=O)O.c1ccc(Cc2ncc3c(n2)CCNCC3)cc1

Activity [3]: inactive
Structure (SMILES): c1ccc(-c2ncc3c(n2)CCNCC3)cc1

hepatocyte CLint [4]: < 5 µL/min/1e6 cells
clearance [5]: 51 mL/min/kg
Cmax [6]: 49 ng/mL
dose excreted [7]: 10%
microsomal CLint [8]: 28 µL/min/mg
clearance [9]: 11.6 mL/min/kg
bioavailability [11]: 44%
hepatocyte CLint [12]: < 5 µL/min/1e6 cells
Vd [13]: 8.9 L/kg
hepatocyte CLint [14]: 15 µL/min/1e6 cells
Tmax [15]: 0.25 h
microsomal CLint [16]: < 7 µL/min/mg
half-life [17]: 3.4 h
AUC [18]: 290 ng·h/mL
half-life [19]: 2.8 h
Vd [20]: 3.5 L/kg
microsomal CLint [21]: < 7 µL/min/mg
pKa [22]: 8.5
Structure (SMILES): c1ccc(Cc2ncc3c(n2)CCNCC3)cc1 [listing 1 of 2 here]
Activity [10]: 20%

Emax [23]: 62%
Emax [3]: 84%
EC50 [24]: 410 nM
Structure (SMILES): Cc1cccc(Cc2ncc3c(n2)CCNCC3)c1

Emax [23]: 36%
Emax [25]: 38%
EC50 [24]: 178 nM
Ki [26]: 1850 nM
Structure (SMILES): Clc1ccccc1Cc1ncc2c(n1)CCNCC2

Activity [3]: inactive
Structure (SMILES): c1ccc(-c2ncc3c(n2)CCNC3)cc1

inhibition [30]: < 20%
Activity [31]: inactive
Emax [32]: 33%
inhibition [33]: < 20%
Activity [34]: inactive
inhibition [35]: < 20%
Emax [36]: 82%
inhibition [37]: < 20%
Emax [38]: 51%
Emax [39]: 33%
Activity [40]: 81%
Structure (SMILES): c1ccc(Cc2ncc3c(n2)CCNCC3)cc1 [listing 2 of 2 here]
inhibition [27]: inactive
Activity [28]: Dose-dependent effect
Activity [29]: inactive

Emax [23]: 62%
Emax [3]: 65%
EC50 [24]: 60 nM
Structure (SMILES): Clc1ccc(Cc2ncc3c(n2)CCNCC3)cc1

Emax [25]: 64%
Structure (SMILES): c1ccc(Cc2ncc3c(n2)CCNC3)cc1

Emax [3]: 100%
EC50 [41]: 1900 nM
Structure (SMILES): c1ccc(CCCc2ncc3c(n2)CCNC3)cc1

Emax [23]: 43%
Emax [3]: 65%
EC50 [24]: 220 nM
Structure (SMILES): Fc1ccccc1Cc1ncc2c(n1)CCNCC2

Emax [23]: 80%
Emax [3]: 63%
EC50 [24]: 164 nM
Structure (SMILES): Cc1ccc(Cc2ncc3c(n2)CCNCC3)cc1

Emax [25]: 15%
Emax [39]: 15%
Structure (SMILES): FC(F)(F)c1ccccc1Cc1ncc2c(n1)CCNCC2
